One may read the IC50 as the concentration that gives 50% inhibition.

The target in this assay is T1, Human neutrophil elastase (Homo sapiens, UniProt P08246).
T1 construct: purchased Calbiochem 324681
T1 sequence (P08246 30-267): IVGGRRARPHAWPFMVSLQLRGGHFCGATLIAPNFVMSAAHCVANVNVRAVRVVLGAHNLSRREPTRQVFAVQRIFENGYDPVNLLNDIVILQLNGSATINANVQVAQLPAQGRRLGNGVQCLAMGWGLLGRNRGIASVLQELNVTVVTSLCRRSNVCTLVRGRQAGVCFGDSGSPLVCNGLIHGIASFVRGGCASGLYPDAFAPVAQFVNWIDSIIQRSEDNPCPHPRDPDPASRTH
Nature of the assay: Human Neutrophil Elastase Assay. The settings on record: Neutrophil Elastase assay; substrate MeOSuc-Ala-Ala-Pro-Val-AMC 250 μM; 15 min preincubation, 60 min incubation at room temperature; pH 7.5. The format is biochemical. The procedure: Human Neutrophil Elastase Assay
All other materials were of the highest grade commercially available.
The following buffers were used: Compound buffer: 100 mM Tris, 500 mM NaCl, adjusted to pH 7.5; Assay buffer: 100 mM Tris, 500 mM NaCl, adjusted to pH 7.5, containing 0.01% BSA.
Assay conditions: Test compounds were prediluted in DMSO and subsequently in compound buffer (5% DMSO final). […] After inactivation of the enzyme, fluorescence intensities were measured at 380 nm excitation and 460 nm emission wavelengths.
Each plate contains wells with a high value control (DMSO+enzyme+substrate) and wells with a low value control (DMSO+inactivated enzyme+substrate). […] Means of low values were taken as 0%, means of high values as 100%.

For the molecule `CNC(=O)c1cn(C(C)c2ccc(C#N)cc2)c(C)c(-c2cccc(C(F)F)c2)c1=O` (single isomer, unassigned) [Example 8A], the IC50 came to 0.0012 µM.

As for `CNC(=O)c1cn(C(C)c2ccc(C#N)cc2)c(C)c(-c2cccc(C(F)F)c2)c1=O` (single isomer, unassigned) [Example 8B], half-maximal inhibition (IC50) was put at 0.522 µM.

Consider `CNC(=O)c1cn(C(C)c2ccc(C#N)cc2)c(C)c(-c2ccnc(C(F)(F)F)c2)c1=O` (single isomer, unassigned) [Example 9A], for which the IC50 amounted to 0.0037 µM.

On to `CNC(=O)c1cn(C(C)c2ccc(C#N)cc2)c(C)c(-c2ccnc(C(F)(F)F)c2)c1=O` (single isomer, unassigned) [Example 9B], for which inhibition was half-maximal at 1.51 µM (IC50).

Consider `CCNC(=O)c1cn(C(C)c2ccc(C#N)cc2)c(C)c(-c2cccc(C(F)(F)F)c2)c1=O` (single isomer, unassigned) [Example 10A], for which the IC50 is < 0.001 µM.

Take `CCNC(=O)c1cn(C(C)c2ccc(C#N)cc2)c(C)c(-c2cccc(C(F)(F)F)c2)c1=O` (single isomer, unassigned) [Example 10B]: the IC50 was 0.29 µM.

With `Cc1c(-c2cccc(C(F)F)c2)c(=O)c(C(=O)NCc2ccc(S(C)(=O)=O)cc2)cn1C(C)c1ccc(C#N)cc1` (single isomer, unassigned) [Example 11A], the IC50 was < 0.001 µM.

With `Cc1c(-c2cccc(C(F)F)c2)c(=O)c(C(=O)NCc2ccc(S(C)(=O)=O)cc2)cn1C(C)c1ccc(C#N)cc1` (single isomer, unassigned) [Example 11B], the IC50 was 0.0195 µM.

`CNC(=O)c1cn(C(C)c2ccc(C#N)cn2)c(C)c(-c2cccc(C(F)(F)F)c2)c1=O` (single isomer, unassigned) [Example 15B] yielded an IC50 of 0.0678 µM.

Take `CNC(=O)c1cn(C(C)c2ccc(C#N)cn2)c(C)c(-c2cccc(C(F)F)c2)c1=O` (single isomer, unassigned) [Example 16A]: the IC50 stood at 0.0042 µM.

In turn, `CNC(=O)c1cn(C(C)c2ccc(C#N)cn2)c(C)c(-c2cccc(C(F)F)c2)c1=O` (single isomer, unassigned) [Example 16B] showed an IC50 of 0.372 µM.

Turning to `CNC(=O)c1cn(C(C)c2ccc(C#N)cc2)c(C)c(-c2cccc(CF)c2)c1=O` (single isomer, unassigned) [Example 31B], half-maximal inhibition (IC50) required 0.0042 µM.

Take `Cc1c(-c2cccc(C(F)(F)F)c2)c(=O)c(C(=O)NCCO)cn1Cc1ccc(C#N)cc1` [Example 1.1, 1-(4-Cyano-benzyl)-6-methyl-4-oxo-5-(3-trifluoromethyl-phenyl)-1,4-dihydro-pyridine-3-carboxylic acid (2-hydroxy-ethyl)-amide]: 0.0152 µM corresponded to half-maximal inhibition (IC50).

`Cc1c(-c2cccc(C(F)(F)F)c2)c(=O)c(C(=O)NCC2CCN(C)CC2)cn1Cc1ccc(C#N)cc1` [Example 1.2] gave an IC50 of 0.0483 µM.

In turn, `COCCCNC(=O)c1cn(Cc2ccc(C#N)cc2)c(C)c(-c2cccc(C(F)(F)F)c2)c1=O` [Example 1.3] yielded an IC50 of 0.013 µM.

In turn, `Cc1c(-c2cccc(C(F)(F)F)c2)c(=O)c(C(=O)NCCCN(C)C)cn1Cc1ccc(C#N)cc1` [Example 1.4] displayed an IC50 of 0.0276 µM.

As for `COCCNC(=O)c1cn(Cc2ccc(C#N)cc2)c(C)c(-c2cccc(C(F)(F)F)c2)c1=O` [Example 1.5], half-maximal inhibition (IC50) was put at 0.0104 µM.

`Cc1c(-c2cccc(C(F)(F)F)c2)c(=O)c(C(=O)NCCN(C)C)cn1Cc1ccc(C#N)cc1` [Example 1.6] had a 50% inhibitory concentration (IC50) of 0.0305 µM.

`Cc1c(-c2cccc(C(F)(F)F)c2)c(=O)c(C(=O)NCC2CCN(C(=O)CN(C)C)CC2)cn1Cc1ccc(C#N)cc1` [Example 1.7] displayed an IC50 of 0.0158 µM.

Consider `Cc1c(-c2cccc(C(F)(F)F)c2)c(=O)c(C(=O)NCC2(O)CCN(C)CC2)cn1Cc1ccc(C#N)cc1` [Example 1.8], for which the IC50 stood at 0.083 µM.

`Cc1c(-c2cccc(C(F)(F)F)c2)c(=O)c(C(=O)NCCCO)cn1Cc1ccc(C#N)cc1` [Example 1.9] yielded an IC50 of 0.0084 µM.

Molecule `Cc1c(-c2cccc(C(F)(F)F)c2)c(=O)c(C(=O)NCc2ccc([S+](C)[O-])cc2)cn1Cc1ccc(C#N)cc1` (centres unmarked) [Example 1.10] yielded an IC50 of 0.0011 µM.

`CNC(=O)c1cn(Cc2ccc(C#N)cc2)c(C)c(-c2cccc(C(F)(F)F)c2)c1=O` [Example 1.11]: 0.0144 µM corresponded to half-maximal inhibition (IC50).

In turn, `Cc1c(-c2cccc(C(F)(F)F)c2)c(=O)c(C(=O)NC2CNC(=O)C2)cn1Cc1ccc(C#N)cc1` (centres unmarked) [Example 1.12] returned an IC50 of 0.0121 µM.

In turn, `Cc1c(-c2cccc(C(F)(F)F)c2)c(=O)c(C(=O)NCC[S+](C)[O-])cn1Cc1ccc(C#N)cc1` (centres unmarked) [Example 1.13] yielded an IC50 of 0.0066 µM.

Take `Cc1c(-c2cccc(C(F)(F)F)c2)c(=O)c(C(=O)NCc2ccnnc2)cn1Cc1ccc(C#N)cc1` [Example 1.14]: the IC50 was determined as 0.0018 µM.

As to `Cc1nnc(CNC(=O)c2cn(Cc3ccc(C#N)cc3)c(C)c(-c3cccc(C(F)(F)F)c3)c2=O)o1` [Example 1.15], 0.0079 µM corresponded to half-maximal inhibition (IC50).

`Cc1c(-c2cccc(C(F)(F)F)c2)c(=O)c(C(=O)NCCCS(C)(=O)=O)cn1Cc1ccc(C#N)cc1` [Example 1.16] had an IC50 of 0.0074 µM.

In the case of `Cc1c(-c2cccc(C(F)(F)F)c2)c(=O)c(C(=O)NCC(O)CO)cn1Cc1ccc(C#N)cc1` (centres unmarked) [Example 1.17, 1-(4-Cyano-benzyl)-6-methyl-4-oxo-5-(3-trifluoromethyl-phenyl)-1,4-dihydro-pyridine-3-carboxylic acid (2,3-dihydroxy-propyl)-amide], inhibition was half-maximal at 0.021 µM (IC50).

With `CCCNC(=O)c1cn(Cc2ccc(C#N)cc2)c(C)c(-c2cccc(C(F)(F)F)c2)c1=O` [Example 1.18], the midpoint of inhibition, the IC50, lay at 0.0238 µM.

`Cc1c(-c2cccc(C(F)(F)F)c2)c(=O)c(C(=O)NC(CO)CO)cn1Cc1ccc(C#N)cc1` [Example 1.19]: the IC50 stood at 0.0481 µM.

The molecule `Cc1c(-c2cccc(C(F)(F)F)c2)c(=O)c(C(=O)NCCCCO)cn1Cc1ccc(C#N)cc1` [Example 1.20] displayed an IC50 of 0.0106 µM.

Regarding `Cc1c(-c2cccc(C(F)(F)F)c2)c(=O)c(C(=O)NCCN2CCNC2=O)cn1Cc1ccc(C#N)cc1` [Example 1.21], the IC50 was found to be 0.0144 µM.

The molecule `Cc1c(-c2cccc(C(F)(F)F)c2)c(=O)c(C(=O)NC(C)CO)cn1Cc1ccc(C#N)cc1` (centres unmarked) [Example 1.22] gave an IC50 of 0.0446 µM.

Regarding `Cc1c(-c2cccc(C(F)(F)F)c2)c(=O)c(C(=O)NCC(C)O)cn1Cc1ccc(C#N)cc1` (centres unmarked) [Example 1.23], the IC50 was 0.019 µM.

For `CCOCCNC(=O)c1cn(Cc2ccc(C#N)cc2)c(C)c(-c2cccc(C(F)(F)F)c2)c1=O` [Example 1.24], the IC50 is 0.01 µM.

`Cc1c(-c2cccc(C(F)(F)F)c2)c(=O)c(C(=O)NCCOCCOCCO)cn1Cc1ccc(C#N)cc1` [Example 1.25] yielded an IC50 of 0.0109 µM.

`Cc1c(-c2cccc(C(F)(F)F)c2)c(=O)c(C(=O)NCc2cnn(C)c2)cn1Cc1ccc(C#N)cc1` [Example 1.26] had an IC50 of 0.0132 µM.

Consider `Cc1c(-c2cccc(C(F)(F)F)c2)c(=O)c(C(=O)N[C@H]2CC[C@H](O)CC2)cn1Cc1ccc(C#N)cc1` [Example 1.27], for which half-maximal inhibition (IC50) required 0.0464 µM.

In turn, `Cc1c(-c2cccc(C(F)(F)F)c2)c(=O)c(C(=O)NCCN2CCCC2=O)cn1Cc1ccc(C#N)cc1` [Example 1.28] returned an IC50 of 0.0218 µM.

On to `Cc1c(-c2cccc(C(F)(F)F)c2)c(=O)c(C(=O)NC2CCOCC2)cn1Cc1ccc(C#N)cc1` [Example 1.29], for which 0.0316 µM corresponded to half-maximal inhibition (IC50).

`Cc1c(-c2cccc(C(F)(F)F)c2)c(=O)c(C(=O)NCCn2cccn2)cn1Cc1ccc(C#N)cc1` [Example 1.30]: half-maximal inhibition (IC50) was put at 0.0171 µM.

As for `Cc1c(-c2cccc(C(F)(F)F)c2)c(=O)c(C(=O)NCc2cn(C)cn2)cn1Cc1ccc(C#N)cc1` [Example 1.31], 0.0137 µM corresponded to half-maximal inhibition (IC50).

Regarding `Cc1c(-c2cccc(C(F)(F)F)c2)c(=O)c(C(=O)NCc2cncn2C)cn1Cc1ccc(C#N)cc1` [Example 1.32], the midpoint of inhibition, the IC50, lay at 0.023 µM.

Take `Cc1c(-c2cccc(C(F)(F)F)c2)c(=O)c(C(=O)NCc2ccnn2C)cn1Cc1ccc(C#N)cc1` [Example 1.33]: the IC50 is 0.0037 µM.

The molecule `Cc1c(-c2cccc(C(F)(F)F)c2)c(=O)c(C(=O)NCc2ccn(C)n2)cn1Cc1ccc(C#N)cc1` [Example 1.34] returned an IC50 of 0.0089 µM.

`Cc1c(-c2cccc(C(F)(F)F)c2)c(=O)c(C(=O)NCC2COCCO2)cn1Cc1ccc(C#N)cc1` (centres unmarked) [Example 1.35] showed a 50% inhibitory concentration (IC50) of 0.0314 µM.

As to `Cc1c(-c2cccc(C(F)(F)F)c2)c(=O)c(C(=O)N[C@H]2CCC(=O)N(C)C2)cn1Cc1ccc(C#N)cc1` [Example 1.36], the IC50 is 0.0471 µM.

For the molecule `Cc1c(-c2cccc(C(F)(F)F)c2)c(=O)c(C(=O)NC2CCOC2)cn1Cc1ccc(C#N)cc1` (centres unmarked) [Example 1.37], 0.0957 µM corresponded to half-maximal inhibition (IC50).

`Cc1c(-c2cccc(C(F)(F)F)c2)c(=O)c(C(=O)NC2COC2)cn1Cc1ccc(C#N)cc1` [Example 1.38] showed an IC50 of 0.0369 µM.

For the molecule `Cc1c(-c2cccc(C(F)(F)F)c2)c(=O)c(C(=O)NC2CCNC2=O)cn1Cc1ccc(C#N)cc1` (centres unmarked) [Example 1.39], half-maximal inhibition (IC50) was put at 0.0062 µM.

As for `Cc1c(-c2cccc(C(F)(F)F)c2)c(=O)c(C(=O)NCc2cccc(=O)[nH]2)cn1Cc1ccc(C#N)cc1` [Example 1.40], the IC50 is 0.0021 µM.

`Cc1c(-c2cccc(C(F)(F)F)c2)c(=O)c(C(=O)NCc2cccnn2)cn1Cc1ccc(C#N)cc1` [Example 1.41]: it took 0.0032 µM to reach half-maximal inhibition (IC50).

The values above are taken from patent publication USRE46630E1, “Substituted 4-pyridones and their use as inhibitors of neutrophil elastase activity” (Boehringer Ingelheim International GmbH, priority 2012, dated 2017).
